Results as given in patent US9328099B2, “Cyanomethylpyrazole carboxamides as janus kinase inhibitors” (Merck Sharp & Dohme Corp., priority 2011, dated 2016).

Tests used:
[1] = biological target: JAK2 (Homo sapiens (Human), UniProt O60674); experiment: Jak Biochemical HTRF Assay, JAK2; conditions: HTRF biochemical assay, GST-tagged catalytic domain; top concentration tested […]
Text: (§1) Jak Biochemical HTRF Assay Protocol
(§2) Subsequent reagent additions employed an Agilent Bravo.

[2] = biological target: JAK1 (Homo sapiens (Human), UniProt P23458); experiment: Jak Biochemical HTRF Assay, JAK1; conditions: HTRF biochemical assay, GST-tagged catalytic domain; top concentration tested […]; read-out: JAK1 IC50
Text: as §1, §2

Sequence of JAK1 (P23458 875-1153): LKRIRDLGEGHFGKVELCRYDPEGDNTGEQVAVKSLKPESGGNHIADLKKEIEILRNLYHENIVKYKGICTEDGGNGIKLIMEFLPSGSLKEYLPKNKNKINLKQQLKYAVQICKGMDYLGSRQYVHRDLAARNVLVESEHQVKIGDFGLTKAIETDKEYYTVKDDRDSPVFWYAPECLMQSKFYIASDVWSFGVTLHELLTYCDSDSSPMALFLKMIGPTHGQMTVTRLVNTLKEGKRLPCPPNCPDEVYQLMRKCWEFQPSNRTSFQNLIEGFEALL
Sequence of JAK2 (O60674 849-1124): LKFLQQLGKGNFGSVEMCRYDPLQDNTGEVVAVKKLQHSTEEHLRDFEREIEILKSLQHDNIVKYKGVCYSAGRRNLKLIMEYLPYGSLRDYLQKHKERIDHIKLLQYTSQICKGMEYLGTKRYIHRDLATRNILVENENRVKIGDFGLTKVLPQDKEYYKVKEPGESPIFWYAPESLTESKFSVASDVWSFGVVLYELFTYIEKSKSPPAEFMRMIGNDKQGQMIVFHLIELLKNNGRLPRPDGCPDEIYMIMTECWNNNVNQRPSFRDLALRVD

## N#CCC1(n2cc(C(N)=O)c(Nc3ccnc(F)c3)n2)CCN(C(=O)CC2CCCO2)CC1 (stereo not shown) [Example 34-39, 1-[4-(cyanomethyl)-1-(tetrahydrofuran-2-ylacetyl)piperidin-4-yl]-3-[(2-fluoropyridin-4-yl)amino]-1H-pyrazole-4-carboxamide]
[1]
  IC50: 42 nM
[2]
  IC50: 0.9 nM

## CC(F)(F)C(=O)N1CCC(CC#N)(n2cc(C(N)=O)c(Nc3ccnc(F)c3)n2)CC1 [Example 34-40, 1-[4-(cyanomethyl)-1-(2,2-difluoropropanoyl)piperidin-4-yl]-3 [(2-fluoropyridin-4-yl)amino]-1H-pyrazole-4-carboxamide]
[1]
  IC50: 2 nM
[2]
  IC50: 0.1 nM

## CC(CF)(CF)C(=O)N1CCC(CC#N)(n2cc(C(N)=O)c(Nc3ccnc(F)c3)n2)CC1 [Example 34-41, 1-{4-(cyanomethyl)-1-[3-fluoro-2-(fluoromethyl)-2-methylpropanoyl]piperidin-4-yl}-3-[(2-fluoropyridin-4-yl)amino]-1H-pyrazole-4-carboxamide]
[1]
  IC50: 48 nM
[2]
  IC50: 3 nM

## COCC(=O)N1CCC(CC#N)(n2cc(C(N)=O)c(Nc3ccnc(F)c3)n2)CC1 [Example 34-42, 1-[4-(cyanomethyl)-1-(methoxyacetyl)piperidin-4-yl]-3-[(2-fluoropyridin-4-yl)amino]-1H-pyrazole-4-carboxamide]
[1]
  IC50: 96 nM
[2]
  IC50: 3 nM

## CC(C)(O)C(=O)N1CCC(CC#N)(n2cc(C(N)=O)c(Nc3ccnc(F)c3)n2)CC1 [Example 34-43, 1-[4-(cyanomethyl)-1-(2-hydroxy-2-methylpropanoyl)piperidin-4-yl]-3-[(2-fluoropyridin-4-yl)amino]-1H-pyrazole-4-carboxamide]
[1]
  IC50: 234 nM
[2]
  IC50: 11 nM

## Cn1cc(C(=O)N2CCC(CC#N)(n3cc(C(N)=O)c(Nc4ccnc(F)c4)n3)CC2)cn1 [Example 34-44, 1-{4-(cyanomethyl)-1-[(1-methyl-1H-pyrazol-4-yl)carbonyl]piperidin-4-yl}-3-[(2-fluoropyridin-4-yl)amino]-1H-pyrazole-4-carboxamide]
[1]
  IC50: 63 nM
[2]
  IC50: 2 nM

## N#CCC1(n2cc(C(N)=O)c(Nc3ccnc(F)c3)n2)CCN(C(=O)CC2CC2)CC1 [Example 34-45, 1-[4-(cyanomethyl)-1-(cyclopropylacetyl)piperidin-4-yl]-3-[(2-fluoropyridin-4-yl)amino]-1H-pyrazole-4-carboxamide]
[1]
  IC50: 46 nM
[2]
  IC50: 1 nM

## CC(C)[C@@H](O)C(=O)N1CCC(CC#N)(n2cc(C(N)=O)c(Nc3ccnc(F)c3)n2)CC1 [Example 34-46, 1-{4-(cyanomethyl)-1-[(2R)-2-hydroxy-3-methylbutanoyl]piperidin-4-yl}-3-[(2-fluoropyridin-4-yl)amino]-1H-pyrazole-4-carboxamide]
[1]
  IC50: 139 nM
[2]
  IC50: 2 nM

## CC(C)[C@H](O)C(=O)N1CCC(CC#N)(n2cc(C(N)=O)c(Nc3ccnc(F)c3)n2)CC1 [Example 34-47, 1-{4-(cyanomethyl)-1-[(2S)-2-hydroxy-3-methylbutanoyl]piperidin-4-yl}-3-[(2-fluoropyridin-4-yl)amino]-1H-pyrazole-4-carboxamide]
[1]
  IC50: 79 nM
[2]
  IC50: 2 nM

## CC(C(=O)N1CCC(CC#N)(n2cc(C(N)=O)c(Nc3ccnc(F)c3)n2)CC1)C(F)(F)F (stereo not shown) [Example 34-48, 1-[4-(cyanomethyl)-1-(3,3,3-trifluoro-2-methylpropanoyl)piperidin-4-yl]-3-[(2-fIuoropyridin-4-yl)amino]-1H-pyrazole-4-carboxamide]
[1]
  IC50: 13 nM
[2]
  IC50: 0.3 nM

## N#CCC(=O)N1CCC(CC#N)(n2cc(C(N)=O)c(Nc3ccnc(F)c3)n2)CC1 [Example 34-49, 1-[1-(cyanoacetyl)-4-(cyanomethyl)piperidin-4-yl]-3-[(2-fIuoropyridin-4-yl)amino]-1H-pyrazole-4-carboxamide]
[1]
  IC50: 9 nM
[2]
  IC50: 0.2 nM

## CC(C)(O)CC(=O)N1CCC(CC#N)(n2cc(C(N)=O)c(Nc3ccnc(F)c3)n2)CC1 [Example 34-50, 1-[4-(cyanomethyl)-1-(3-hydroxy-3-methylbutanoyl)piperidin-4-yl]-3-[(2-fluoropyridin-4-yl)amino]-1H pyrazole-4-carboxamide]
[1]
  IC50: 8 nM
[2]
  IC50: 0.2 nM

## N#CCC1(n2cc(C(N)=O)c(Nc3ccnc(F)c3)n2)CCN(C(=O)C2(C(F)(F)F)CCC2)CC1 [Example 34-51, 1-[4-(cyanomethyl)-1-{[1-(trifluoromethyl)cyclobutyl]carbonyl}piperidin-4-yl]-3-[(2-fluoropyridin-4-yl)amino]-1H-pyrazole-4-carboxamide]
[1]
  IC50: 37 nM
[2]
  IC50: 4 nM

## N#CCC1(n2cc(C(N)=O)c(Nc3ccnc(F)c3)n2)CCN(C(=O)Cn2ccnc2)CC1 [Example 34-52, 1-[4-(cyanomethyl)-1-(1H-imidazol-1-ylacetyl)piperidin-4-yl]-3-[(2-fluoropyridin-4-yl)amino]-1H-pyrazole-4-carboxamide]
[1]
  IC50: 154 nM
[2]
  IC50: 4 nM

## N#CCC1(n2cc(C(N)=O)c(Nc3ccnc(F)c3)n2)CCN(C(=O)C2CC(F)(F)C2)CC1 [Example 34-53, 1-{4-(cyanomethyl)-1-[(3,3-difluorocyclobutyl)carbonyl]piperidin-4-yl}-3-[(2-fluoropyridin-4-yl)amino]-1H-pyrazole-4-carboxamide]
[1]
  IC50: 15 nM
[2]
  IC50: 0.3 nM

## CC(C)(C)CC(=O)N1CCC(CC#N)(n2cc(C(N)=O)c(Nc3ccnc(F)c3)n2)CC1 [Example 34-54, 1-[4-(cyanomethyl)-1-(3,3-dimethylbutanoyl)piperidin-4-yl]-3-[(2-fluoropyridin-4-yl)amino]-1H-pyrazole-4-carboxamide]
[1]
  IC50: 44 nM
[2]
  IC50: 0.6 nM

## CC(C)(C(=O)N1CCC(CC#N)(n2cc(C(N)=O)c(Nc3ccnc(F)c3)n2)CC1)C(F)(F)F [Example 34-55, 1-[4-(cyanomethyl)-1-(3,3,3-trifluoro-2,2-dimethylpropanoyl)piperidin-4-yl]-3-[(2-fluoropyridin-4-yl)amino]-1H-pyrazole-4-carboxamide]
[1]
  IC50: 28 nM
[2]
  IC50: 1 nM

## N#CCC1(n2cc(C(N)=O)c(Nc3ccnc(F)c3)n2)CCN(C(=O)C2(C(F)(F)F)CC2)CC1 [Example 34-56, 1-[4-(cyanomethyl)-1-{[1-(trifluoromethyl)cyclopropyl]carbonyl}piperidin-4-yl]-3-[(2-fluoropyridin-4-yl)amino]-1H-pyrazole-4-carboxamide]
[1]
  IC50: 40 nM
[2]
  IC50: 2 nM

## N#CCC1(n2cc(C(N)=O)c(Nc3ccnc(F)c3)n2)CCN(C(=O)CCC(F)(F)F)CC1 [Example 34-57, 1-[4-(cyanomethyl)-1-(4,4,4-trifluorobutanoyl)piperidin-4-yl]-3-[(2-fluoropyridin-4-yl)amino]-1H-pyrazole-4-carboxamide]
[1]
  IC50: 9 nM
[2]
  IC50: 0.1 nM

## CS(=O)(=O)CC(=O)N1CCC(CC#N)(n2cc(C(N)=O)c(Nc3ccnc(F)c3)n2)CC1 [Example 34-58, 1-{4-(cyanomethyl)-1-[(methylsulfonyl)acetyl]piperidin-4-yl}-3-[(2-fluoropyridin-4-yl)amino]-1H-pyrazole-4-carboxamide]
[1]
  IC50: 22 nM
[2]
  IC50: 0.5 nM

## CCC(F)(F)C(=O)N1CCC(CC#N)(n2cc(C(N)=O)c(Nc3ccnc(F)c3)n2)CC1 [Example 34-59, 1-[4-(cyanomethyl)-1-(2,2-difluorobutanoyl)piperidin-4-yl]-3-[(2-fluoropyridin-4-yl)amino]-1H-pyrazole-4-carboxamide]
[1]
  IC50: 3 nM
[2]
  IC50: 0.2 nM

## CC1(C(=O)N2CCC(CC#N)(n3cc(C(N)=O)c(Nc4ccnc(F)c4)n3)CC2)CCC1 [Example 34-60, 1-{4-(cyanomethyl)-1-[(1-methylcyclobutyl)carbonyl]piperidin-4-yl}-3-[(2-fluoropyridin-4-yl)amino]-1H-pyrazole-4-carboxamide]
[1]
  IC50: 115 nM
[2]
  IC50: 8 nM

## CC(O)(C(=O)N1CCC(CC#N)(n2cc(C(N)=O)c(Nc3ccnc(F)c3)n2)CC1)C(F)F (stereo not shown) [Example 34-61, 1-[4-(cyanomethyl)-1-(3,3-difluoro-2-hydroxy-2-methylpropanoyl)piperidin-4-yl]-3-[(2-fluoropyridin-4-yl)amino]-1H-pyrazole-4-carboxamide]
[1]
  IC50: 38 nM
[2]
  IC50: 2 nM

## C[C@@H](O)CC(=O)N1CCC(CC#N)(n2cc(C(N)=O)c(Nc3ccnc(F)c3)n2)CC1 [Example 34-62, 1-{4-(cyanomethyl)-1-[(3R)-3-hydroxybutanoyl]piperidin-4-yl}-3-[(2-fluoropyridin-4-yl)amino]-1H-pyrazole-4-carboxamide]
[1]
  IC50: 47 nM
[2]
  IC50: 1 nM

## N#CCC1(n2cc(C(N)=O)c(Nc3ccnc(F)c3)n2)CCN(C(=O)CC(F)(F)F)CC1 [Example 35-2, 1-(4-(cyanomethyl)-1-(3,3,3-trifluoropropanoyl)piperidin-4-yl)-3-(2-fluoropyridin-4-ylamino)-1H-pyrazole-4-carboxamide]
[1]
  IC50: 10 nM
[2]
  IC50: 0.2 nM

## N#CCC1(n2cc(C(N)=O)c(Nc3cncc(F)c3)n2)CCN(C(=O)CC(F)(F)F)CC1 [Example 35-3, 1-(4-(cyanomethyl)-1-(3,3,3-trifluoropropanoyl)piperidin-4-yl)-3-(5-fluoropyridin-3-ylamino)-1H-pyrazole-4-carboxamide]
[1]
  IC50: 35 nM
[2]
  IC50: 3 nM

## N#CCC(=O)N1CCC(CC#N)(n2cc(C(N)=O)c(Nc3ccccc3)n2)CC1 [Example 36-1, 1-[1-(Cyanoacetyl)-4-(cyanomethyl)piperidin-4-yl]-3-(phenylamino)-1H-pyrazole-4-carboxamide]
[1]
  IC50: 77 nM
[2]
  IC50: 5 nM

## CS(=O)(=O)c1ccc(Nc2nn(C3(CC#N)CCN(C(=O)CC#N)CC3)cc2C(N)=O)cc1 [Example 36-2, 1-[1-(cyanoacetyl)-4-(cyanomethyl)piperidin-4-yl]-3-{[4-(methylsulfonyl)phenyl]amino}-1H-pyrazole-4-carboxamide]
[1]
  IC50: 10 nM
[2]
  IC50: 0.6 nM

## CC(C)S(=O)(=O)N1CCC(CC#N)(n2cc(C(N)=O)c(Nc3ccccc3)n2)CC1 [Example 37-1, 1-[4-(Cyanomethyl)-1-(isopropylsulfonyl)piperidin-4-yl]-3-(phenylamino)-1H-pyrazole-4-carboxamide]
[1]
  IC50: 13 nM
[2]
  IC50: 2 nM
